Experimental data as given in patent US4774241A, “Derivative of benzoquinonylphenyl alkanoic acid amide” (Suntory Limited, priority 1986, dated 1988).

Experiments:
Acute Toxicity Test = details: mouse, in vivo; ip, mice, suspended in 1% arabic gum
Source text: Male ddY-STF mice having an age of 4 to 5 weeks and a body weight of 22 to 30 g were used for evaluating the acute toxicity of the present compounds. The sample compound was suspended in 1% arabic gum and was intraperitoneally injected.

[1] = test system: Male ddY mice (hypobaric hypoxia); test: Hypobaric Hypoxia Activity (survival time of mice at 180 mmHg); format: in vivo; details: Mus musculus, ip, 30 minutes before evacuation, survival time vs. control, read-out: Hypobaric Hypoxia (Minimum effective dose)
Method: (§1) The activities of some compounds prepared in the above-mentioned Synthetic Examples and the Comparative Examples were evaluated as follows.
1. Hypobaric Hypoxia Activity
Male ddY mice having a body weight of 22 to 30 g were used (i.e., 7 to 10 mice in one group). The mice were placed in a desiccator having a volume of about 1 liter and the desiccator was evacuated and then, the sample compound was intraperitoneally injected […]. into the mice. The desiccator was evacuated 30 minutes after the injection and the time from the start of the evacuation to the termination of breathing by the mice was determined to be the survival time. If a mouse was still alive 15 minutes after exposure to the hypoxia, the survival time was assumed to be 15 minutes. The results were compared with a control group, to which only a liquid medium (e.g., physiological saline) was injected.

[2] = test system: Male ddY mice (global ischemia); test: Global Ischemia Activity (gasping time after decapitation); format: in vivo; details: ip
Method: as §1
2. Global Ischemia Activity
Male ddY mice having a body weight of 22 to 30 g were used (i.e., 6 mice in one group). The sample compound was intraperitoneally injected into the mice and the mice were decapitated 30 minutes after the injection. After decapitation, the gasping times were determined. The results were compared with a control group to which only the liquid medium (i.e., physiological saline) was injected.

SMILES | LD50 (Acute Toxicity Test) [mg/kg] | minimal effective dose [1] [mg/kg] | minimal effective dose ([2]; Mus musculus, 30 minutes before decapitation, gasping time vs. control, read-out: Global Ischemia (Minimum effective dose)) [mg/kg] | Gasping time ([2]; 25 mg/kg)
COC1=C(OC)C(=O)C(C(CCC(=O)O)c2ccccc2)=C(C)C1=O (stereo not drawn) [compound 1, 4-(3,4-Dimethoxy-6-methyl-2,5-benzoquinonyl)-4-phenylbutyric acid, reference compound] | > 500 |  |  | 
COC1=C(OC)C(=O)C(C(CCC(=O)N2CCN(C)CC2)c2ccccc2)=C(C)C1=O (stereo not drawn) [Example 3, 4-(3,4-Dimethoxy-6-methyl-2,5-benzoquinonyl)-4-phenyl-1-(N-methylpiperazinyl)-1-oxobutane] |  | 25 |  | 
COC1=C(OC)C(=O)C(C(CCC(=O)N2CCSCC2)c2ccccc2)=C(C)C1=O (stereo not drawn) [Example 1, 4-(3,4-dimethoxy-6-methyl-2,5-benzoquinonyl)-4-phenyl-1-thiomorpholine-1-oxobutane] | > 1000 | 6.25 | 12.5 | 
COC1=C(OC)C(=O)C(C(CCCC(=O)O)c2ccccc2)=C(C)C1=O (stereo not drawn) [compound 2, 5-(3,4-Dimethoxy-6-methyl-2,5-benzoquinonyl)-5-phenylvaleric acid, reference compound] | > 500 |  |  | 
COC1=C(OC)C(=O)C(C(CCCC(=O)N2CCSCC2)c2ccccc2)=C(C)C1=O (stereo not drawn) [Example 4, 5-(3,4-dimethoxy-6-methyl-2,5-benzoquinonyl)-5-phenyl-1-thiomorpholino-1-oxopentane] | > 1000 | 6.25 |  | 
COC1=C(OC)C(=O)C(C(CCCC(=O)N2CCOCC2)c2ccccc2)=C(C)C1=O (stereo not drawn) [Example 5, 5-(3,4-dimethoxy-6-methyl-2,5-benzoquinonyl)-5-phenyl-1-morpholino-1-oxopentane] | > 1000 | 6.25 |  | 
COC1=C(OC)C(=O)C(C(CCCCCC(=O)O)c2ccccc2)=C(C)C1=O (stereo not drawn) [compound 3, 7-(3,4-Dimethoxy-6-methyl-2,5-benzoquinonyl)-7-phenylheptanoic acid, reference compound] | > 500 |  |  | Gasping time was shortened
